In test [1] the target is T1, D(2) dopamine receptor (Homo sapiens, UniProt P14416). Kind of test: Displacement of [3H]spiperone from human Dopamine receptor D2L expressed in CHO cells. The format is cell-based. Background: Displacement assays read how much labelled ligand stays bound in the presence of the test substance.
The target of test [2] is D(1A) dopamine receptor (Bos taurus, UniProt Q95136). The test can be described thus: Displacement of [3H]SCH-23390 from bovine striatal membrane Dopamine receptor D1.
In test [3] the target is D(3) dopamine receptor (Homo sapiens, UniProt P35462). Kind of test: Displacement of [3H]spiperone from human Dopamine receptor D3 expressed in CHO cells. The format is cell-based.
Test [4] concerns the target T1, D(2) dopamine receptor. Kind of test: Displacement of [3H]spiperone from human Dopamine receptor D2S expressed in CHO cells. In kind it is cell-based.
Test [5] addresses T2, D(4) dopamine receptor (Homo sapiens, UniProt P21917).
T2 sequence (P21917 whole entry): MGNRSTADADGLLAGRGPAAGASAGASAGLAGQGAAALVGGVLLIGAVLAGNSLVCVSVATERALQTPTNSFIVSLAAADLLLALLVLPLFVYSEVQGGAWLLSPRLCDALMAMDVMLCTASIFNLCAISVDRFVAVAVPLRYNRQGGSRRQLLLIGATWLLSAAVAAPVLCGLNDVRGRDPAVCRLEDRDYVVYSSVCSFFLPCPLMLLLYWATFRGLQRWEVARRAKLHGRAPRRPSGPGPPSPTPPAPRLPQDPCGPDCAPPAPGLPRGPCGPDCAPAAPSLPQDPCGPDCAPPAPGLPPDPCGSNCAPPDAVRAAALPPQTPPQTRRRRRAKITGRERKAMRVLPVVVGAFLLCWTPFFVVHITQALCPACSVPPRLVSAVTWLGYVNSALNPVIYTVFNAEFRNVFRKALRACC
The test can be described thus: Displacement of [3H]spiperone from human Dopamine receptor D4.4 expressed in CHO cells. The format is cell-based.

Broadly, the Ki is a measure of affinity in units of concentration, obtained from inhibition or displacement.

D(3) dopamine receptor, sequence (P35462 whole entry): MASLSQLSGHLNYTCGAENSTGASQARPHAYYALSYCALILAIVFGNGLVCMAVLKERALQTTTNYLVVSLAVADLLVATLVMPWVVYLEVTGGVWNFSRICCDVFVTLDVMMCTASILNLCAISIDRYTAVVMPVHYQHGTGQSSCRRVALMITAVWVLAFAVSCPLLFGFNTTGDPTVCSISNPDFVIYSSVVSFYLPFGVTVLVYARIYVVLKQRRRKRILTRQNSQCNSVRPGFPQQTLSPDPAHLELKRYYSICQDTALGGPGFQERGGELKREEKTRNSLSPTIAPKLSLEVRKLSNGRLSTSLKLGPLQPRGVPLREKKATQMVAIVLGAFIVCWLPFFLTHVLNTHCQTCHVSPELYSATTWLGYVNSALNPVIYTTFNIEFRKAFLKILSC
T1 sequence (P14416 whole entry): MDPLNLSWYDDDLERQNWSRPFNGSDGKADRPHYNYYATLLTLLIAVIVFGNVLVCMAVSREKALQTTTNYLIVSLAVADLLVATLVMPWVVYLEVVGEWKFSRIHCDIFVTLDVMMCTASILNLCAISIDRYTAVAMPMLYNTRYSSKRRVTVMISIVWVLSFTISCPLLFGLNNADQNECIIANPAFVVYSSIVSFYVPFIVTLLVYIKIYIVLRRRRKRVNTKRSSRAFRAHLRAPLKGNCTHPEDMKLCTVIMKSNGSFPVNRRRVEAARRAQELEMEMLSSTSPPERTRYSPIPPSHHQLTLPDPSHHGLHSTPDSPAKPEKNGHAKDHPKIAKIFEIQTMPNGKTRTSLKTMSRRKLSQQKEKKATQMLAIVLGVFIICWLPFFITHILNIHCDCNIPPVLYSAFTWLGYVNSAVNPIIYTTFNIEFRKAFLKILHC
D(1A) dopamine receptor, sequence (Q95136 whole entry): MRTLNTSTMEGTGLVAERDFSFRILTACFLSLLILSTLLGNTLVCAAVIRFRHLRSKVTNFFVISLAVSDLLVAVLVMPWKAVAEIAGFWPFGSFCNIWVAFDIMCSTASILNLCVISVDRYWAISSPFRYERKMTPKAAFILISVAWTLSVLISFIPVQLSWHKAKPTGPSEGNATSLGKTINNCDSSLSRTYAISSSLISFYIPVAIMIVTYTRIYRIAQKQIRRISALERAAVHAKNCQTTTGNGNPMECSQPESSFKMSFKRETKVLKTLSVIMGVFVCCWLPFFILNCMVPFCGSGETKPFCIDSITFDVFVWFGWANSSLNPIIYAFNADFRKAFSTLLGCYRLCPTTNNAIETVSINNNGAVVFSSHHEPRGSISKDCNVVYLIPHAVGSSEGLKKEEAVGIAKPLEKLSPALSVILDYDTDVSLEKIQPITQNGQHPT

As to `C(#Cc1cccn1C1CCN(Cc2ccccc2)CC1)c1ccccc1`, the inhibitory constant (Ki) in test [1] was found to be 10 µM; in test [2], 16 µM; in test [3], 8.7 µM; in test [4], 8.3 µM; in test [5], 3.3 µM.
On the same counts, the results for `N#CC(C#N)=Cc1ccn(C2CCN(Cc3ccccc3)CC2)c1` are 13 µM, 14 µM, 7 µM, 18 µM and 0.23 µM.
On the same counts, the results for `c1ccc(CN2CCC(n3cccc3-c3cnco3)CC2)cc1` are 0.61 µM, 10 µM, 0.77 µM, 0.32 µM and 0.063 µM.
On the same counts, the results for `Ic1cccn1C1CCN(Cc2ccccc2)CC1` are 8.5 µM, 11 µM, 2.6 µM, 5.3 µM and 1.5 µM.
As to `c1ccc(CN2CCC(n3ccc(-c4cnco4)c3)CC2)cc1`, the Ki in test [1] was determined as 3.4 µM; in test [2], 39 µM; in test [3], 6.8 µM; in test [4], 3.2 µM; in test [5] it was 0.13 µM.
For the molecule `C[Si](C)(C)C#Cc1cccn1C1CCN(Cc2ccccc2)CC1`, the inhibitory constant (Ki) in test [1] amounted to 6.2 µM; in test [2], 14 µM; in test [3], 7.7 µM; in test [4] it was 4.9 µM; in test [5], 2.7 µM.
On the same counts, the results for `O=Cc1cccn1C1CCN(Cc2ccccc2)CC1` are 1.4 µM, 5.8 µM, 2.5 µM, 1.5 µM and 0.2 µM.
On the same counts, the results for `C#Cc1cccn1C1CCN(Cc2ccccc2)CC1` are 6.6 µM, 14 µM, 7.9 µM, 6.3 µM and 0.94 µM.
For `N#CC(C#N)=Cc1cccn1C1CCN(Cc2ccccc2)CC1`, in that order: 11 µM, 15 µM, 5.1 µM, 7.8 µM and 0.28 µM.
Consider `c1ccc(CN2CCC(n3cccc3)CC2)cc1`, for which the Ki in test [1] was determined as 8.5 µM; in test [2] it was 34 µM; in test [3] it was 15 µM; in test [4] it was 9.8 µM; in test [5], 1.1 µM.
Consider `O=Cc1ccn(C2CCN(Cc3ccccc3)CC2)c1`, for which the Ki in test [1] was determined as 49 µM; in test [2], 61 µM; in test [3], 31 µM; in test [4], 65 µM; in test [5] it was 0.96 µM.

(Values after ChEMBL document CHEMBL1131871, “Piperidinylpyrroles: design, synthesis and binding properties of novel and selective dopamine D4 receptor ligands” (Bioorg Med Chem Lett, 1999).)
